The source of these data is PMC8297771 (PLoS Pathogens, 2021).

One data set has as its system HIV-1_89.6. In words: In vitro anti-viral assay in CEMx174 cells (p24). The class given is cell-based. As to the method: CEMx174 cells were infected with HIV-1 primary isolate 89.6 (From infectious clone p89.6, NIH AIDS Reagent Program) at approximately at 10% of cell population determined by FACS analyses. To determine antiviral activity during virus production, STP0404 was added at concentration in the range of 0.1 nM—10 μM during media exchange at 4 hrs post-infection. DMSO was used as a negative control. Cell-free supernatants were measured for p24 antigen production, 5 days post-infection. The anti-HIV-1 efficacy of the two enantiomers of STP0404 were also determined by using the same protocol. All assays were conducted in triplicates. The IC50 values were computed using GraphPad Prism (Version 9) and presented as means ± S.D. of the triplicates. For SIVmac239, CEMx174 cells were infected with viral supernatant containing SIVmac293 at 50,000 TCID50/mL (kind gift from Dr. G. Silvestri, Emory Yerkes National Primate Research Center) with 100 μL/10^6 cells at varying concentrations of STP0404, BI224436, and Raltegravir, and the same above protocol was followed except for that p27 capsid antigen content was measured daily for 5 days post infection.

The test system of data set [1] is HIV-1_89.6 particles produced from 293 T cells. In words: TEM analysis of HIV-1 particle morphology. Type of data set: cell-based. To be noted: viruses produced from treated 293T cells; 1 μM. How it is done: 293T cells were transfected with plasmids containing proviral clones encoding WT HIV-1 89.6 using polyethylenimine (PEI). After 6 hrs, cells were rinsed with DPBS gently, and then cells were resuspended in a fresh media with or without the inhibitor (1 μM, final). At 96 hrs post-transfection, cell cultures were centrifuged (1,800 xg) and filtered through 0.45 μm filter to remove cells and any cell debris, and viruses were harvested by centrifugation at 100,000 xg for 1.5 hrs in the presence of TNE sucrose buffer (5% sucrose, final). The pellets were fixed in a buffer containing 0.1 M Na cacodylate at pH 7.4 and 2.5% Glutaraldehyde, and submitted to Emory Integrated Core Facilities for sectioning, followed by TEM. Virus pellets were dehydrated in a graduated ethanol series and embedded in Epon resin. Ultrathin sections were stained using uranyl acetate and observed under a transmission electron microscope (JEOL JEM-1400), equipped with Gatan CCD camera at the Emory Integrated Electron Microscopy Core. Total of approximately 1,000 virions each (with or without the inhibitor treatment) were captured in the images obtained for comparisons in virion morphology.

Data set [2] can be described thus: Plasma stability determination. The class given is in vitro ADME, human, monkey, dog, rat and mouse. To be noted: all tested species; 5 μM, 60 mins, remaining percentage. As to the method: STP0404 was incubated with human, monkey, dog, rat and mouse plasma. These incubations were carried out at a test concentration of 5 μM with an incubation period of 60 mins. Samples of human, monkey, dog, rat and mouse were taken at 0, 15, 30, 45, 60 mins. And stop the reaction by taking 50 μL aliquots to 400 μL acetonitrile with internal standard. Propantheline was used as positive control for human, monkey and mouse plasma and mevinolin as the positive control for dog and rat plasma. The remaining percentage was tested. This test was conducted by a fee to service through Pharmaron (Beijing, China).

A short description of data set [3]: Four-week oral dose toxicology study in dogs (GLP). The class given is in vivo, beagle dogs. To be noted: for NOAEL at 4 weeks: both sexes, beagle. How it is done: STP0404 was administered orally to 10 or 15 SD rats/sex/group at dose levels of 100, 300 and 600 mg/kg/day for 4 weeks to evaluate its potential toxicity. The reversibility of any effects was also assessed following a 2-week untreated recovery period. Control animals (15 animals/sex) received the vehicle, 0.5 w/v% methylcellulose solution, in a similar manner for comparison. In addition, plasma STP0404 concentrations were determined using TK satellite animals (3 animals/sex/group) to evaluate systemic exposure of the animals to the test article. (Study no. YL18402). STP0404 was administered orally as a capsule to 4 or 6 dogs/sex/group at dose levels of 30, 60 and 90 mg/kg/day for 4 weeks to evaluate its potential toxicity. Control animals (6 animals/sex) received empty gelatin capsules in a similar manner for comparison. The reversibility of any effects was also assessed following a 2-week untreated recovery period (2 animals/sex/group for the control and 90 mg/kg/day groups). In addition, plasma STP0404 concentrations were determined using all tested animals (including control group) to evaluate systemic exposure of the animals to the test article (Study no. YL18403). The test was performed according to the Standard Operating Procedures (SOP) the Good Laboratory Practice (GLP) system of the INA Research.

Data set [4] in a line: Safety pharmacology: effects on the cardiovascular system in dogs. Type of data set: in vivo. The conditions noted are these: oral 30, 60 and 90 mg/kg. As to the method: Effects on the Respiratory System in Rats (Study no. YL18404). Four groups of eight male rats were given a single oral administration of STP0404 at doses of 100, 300 and 600 mg/kg. STP0404 was administered as a suspension in 0.5% MC in a volume of 10 mL/kg. […] Measurements were conducted at pre-dosing and 0.5, 1, 3, 6 12 and 24 hrs post-dosing, and respiratory rate, tidal volume and minute volume were investigated (INA Research, Japan). Effects on the Central Nervous System in Rats (Study no. YL18405). Four groups of six male rats were given a single oral administration of STP0404 at doses of 0 (vehicle), 100, 300 and 600 mg/kg. The test article was administered as a suspension in 0.5% MC in a volume of 10 mL/kg. […] Blinded observations were conducted pre-dosing and 0.5, 1, 3, 6, 12 and 24 hrs post-dosing on rats body temperature, pupil size, landing foot-splay and grip strength in functional observational battery. Effects on the Cardiovascular System in Dogs (Study no. YL18406). STP0404 at dose levels of 30, 60 and 90 mg/kg were administered orally (by capsules) to four male Beagle dogs in a design with 7-day intervals between doses. Heart rate, blood pressure (systolic, diastolic and mean) and electrocardiographic (ECG) parameters (PR, QT and QTc intervals and QRS duration) were evaluated at pre-dosing and 0.5, 1, 2, 4, 8 and 24 hrs post-dosing. […]

Where [5] appears, read: Human immunodeficiency virus 1, CEMx174.

The IC50 is the midpoint of a concentration-inhibition curve. A higher IC50 goes with weaker potency in that assay. The term IC90 denotes the concentration needed for an effect of 90%. Read a low IC90 as greater potency. As a reminder, the NOAEL is the highest tested level that showed no adverse finding. With `Cc1nc2c(c(C)c(C)n2Cc2cnn(C)c2)c(-c2ccc(Cl)cc2)c1[C@H](OC(C)(C)C)C(=O)O` [STP0404], the “TI (TC50 / IC50)” value in the data set with HIV-1_89.6 (HIV-1 89.6 / CEMx174 cells) is recorded as > 7,140. Moreover, in the data set with HIV-1_89.6 (setting [5]), inhibition was half-maximal at 1.4 nM (IC50). Besides, the IC90 in the data set with HIV-1_89.6 (setting [5]) came to 21 nM. Also, the “localization of viral RNA genomes in virus particles (TEM)” value in data set [1] is “viral RNA genomes outside of the capsid”. In data set [2], this molecule returned a plasma stability of around 100%. In data set [3] (beagle dogs, oral), the “single dose well tolerated up to” value was “up to 500 mg/kg”. In addition, the NOAEL at 4 weeks in data set [3] (dog, in vivo, dogs, 4-week once daily oral dose) turned out to be 90 mg/kg; in data set [3] (dog, in vivo, male and female dogs, four-week oral), 90 mg/kg/day. Moreover, the “histopathology lesions (in words)” value in data set [3] (dog, in vivo) is listed as “lesions were not observed in any organ”. Besides, in data set [3] (dogs, 30 mg/kg, 60 mg/kg and 90 mg/kg, four-week oral), the “abnormal changes (in words)” value is given as “no abnormal changes were noted at any dose level”. The “highest non-severely toxic dose (HNSTD)” value in data set [3] (four-week dog toxicology study, ICH guidance S9) amounted to 90 mg/kg/day. Further, in data set [4], the “safety pharmacology concerns, cardiovascular system” value was “did not induce any safety pharmacology concerns”.
